Patent publication US20260317306A1, “HETEROARYL DERIVATIVE COMPOUND AND USE THEREOF” (S2CBIO INC., priority 2022, published 2026)

Molecular target: T1, human ANO6 (variant 5) (Homo sapiens, UniProt Q4KMQ2)
T1 construct: expressing human ANO6 (variant 5; NP_001191732.1); expressed in transfected cells; host or cells: Fischer rat thyroid (FRT) cells
T1 sequence (Q4KMQ2 1-931 isoform Q4KMQ2-2): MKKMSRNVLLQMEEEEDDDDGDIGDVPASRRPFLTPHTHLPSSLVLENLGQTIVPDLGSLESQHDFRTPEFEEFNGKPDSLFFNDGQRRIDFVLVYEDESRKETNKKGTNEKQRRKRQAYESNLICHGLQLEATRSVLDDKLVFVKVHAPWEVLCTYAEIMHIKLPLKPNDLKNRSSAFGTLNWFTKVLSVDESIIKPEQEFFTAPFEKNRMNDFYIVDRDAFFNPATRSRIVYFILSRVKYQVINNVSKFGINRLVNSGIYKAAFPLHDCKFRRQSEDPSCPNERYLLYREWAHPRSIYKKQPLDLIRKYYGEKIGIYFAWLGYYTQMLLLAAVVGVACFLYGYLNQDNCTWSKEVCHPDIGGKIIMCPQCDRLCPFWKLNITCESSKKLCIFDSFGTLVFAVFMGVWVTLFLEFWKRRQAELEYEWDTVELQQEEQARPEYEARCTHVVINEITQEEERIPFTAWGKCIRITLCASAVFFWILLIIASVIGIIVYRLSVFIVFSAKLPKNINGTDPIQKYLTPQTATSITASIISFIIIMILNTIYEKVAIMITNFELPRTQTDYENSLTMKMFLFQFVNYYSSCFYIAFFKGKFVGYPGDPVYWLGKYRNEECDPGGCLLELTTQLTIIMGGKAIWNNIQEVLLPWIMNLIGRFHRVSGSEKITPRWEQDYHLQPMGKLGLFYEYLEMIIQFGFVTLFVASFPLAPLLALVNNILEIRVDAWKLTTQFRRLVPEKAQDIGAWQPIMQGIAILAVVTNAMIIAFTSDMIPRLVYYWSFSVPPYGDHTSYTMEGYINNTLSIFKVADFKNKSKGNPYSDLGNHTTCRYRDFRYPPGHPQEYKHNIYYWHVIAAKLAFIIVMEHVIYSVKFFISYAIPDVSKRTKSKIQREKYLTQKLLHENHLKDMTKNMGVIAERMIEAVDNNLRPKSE
Test: Lact C2 Assay (Measuring Phosphatidylserine Externalization Scramblase Function), ionomycin-treated Fischer rat thyroid (FRT) cells expressing human ANO6 (variant 5); compounds at 50 nM, 100 nM and 1 μM
Assay type: cell-based
Settings: 10 μM ionomycin, average of three tests, read-out: % Inhibition (phosphatidylserine externalization inhibitory activity); for inhibition at 0.05 µM: compound at 50 nM; for inhibition at 0.1 µM: compound at 100 nM
Description: Ionomycin (Alomonelab, cat. #I-700), DAPI (Sigma-Aldrich, cat. #D8417), paraformaldehyde (Biosesang, cat. #P2031), Lionheart FX automated fluorescence microscope (BioTek), Gen5™ software program (BioTek), and Image J analysis software program.
Fisher rat thyroid (FRT) cells expressing human ANO6 (variant 5; GenBank accession no. NP_001191732.1) were cultured at 37° C. under 5% Co2 conditions in DMEM/Ham's F-12 (1:1) medium supplemented with 10% Fetal Bovine Serum, 2 mM […], 100 units/mL penicillin, and 100 μg/mL streptomycin.
Fischer Rat Thyroid (FRT) cells (2×10^4 cells/well) expressing human ANO6 (variant 5) were cultured in a 96-well microplate for 24 hours. After the incubation, the cells were treated with compounds dissolved in DMSO to 1% v/v in each well at each concentration (50 nM, 100 nM, and 1 μM) and reacted for 10 minutes. Thereafter, each well was treated with ionomycin to a final concentration of 10 μM, allowed to react for 10 minutes, and then washed with 200 μL PBS. After washing, each well was treated with 50 μL of Lactadherin-C2 (Lact-C2)-GFP mixed in DMEM medium to a final concentration of 500 nM to stain phosphatidylserine, and cultured at 37° C. for 10 minutes. After completion of the reaction, the cells were washed with 200 μL PBS, and fixed with 4% paraformaldehyde for 5 minutes at room temperature. For morphological analysis, DAPI solution was added, and the cells were incubated for 15 minutes, followed by washing with PBS. The fluorescence intensity of Lact-C2-GFP bound to phosphatidylserine on the cell surface was measured using an automated fluorescence microscope. For quantitative analysis of the fluorescence intensity of Lact-C2-GFP, BioTek Gen5™ software and Image J analysis software programs were used.
Phosphatidylserine externalization inhibitory activity (%) by the compound was calculated through the following analysis method. Specifically, the background fluorescence value was subtracted from the measured Lact-C2-GFP fluorescence value, and the fluorescence value of the ionomycin non-treatment group and the ionomycin-treatment group in the same row where each test group was located in a 96-well microplate were calculated. In order to calculate the inhibitory activity (%) by the compound, the relative inhibitory activity was calculated by setting the compound and ionomycin non-treatment group to 100% inhibitory activity and the ionomycin alone treatment group to 0% inhibitory activity. To derive the results, the test was repeated three times, and the average values of the results were classified according to the range below and shown in Table 4 below (A: >60% inhibition, B: 30 to 60% inhibition, N/A: no test).

Compound | inhibition at 0.05 µM | inhibition at 0.1 µM
Fc1ccc2nc(-c3cccc(Nc4ccc(-c5cccnn5)cn4)c3)[nH]c2c1 [Example 55] | > 60% | > 60%
c1cc(Nc2ncc(-c3ccncn3)cn2)cc(-c2nc3ccccc3[nH]2)c1 [Example 76, N-[3-(1H-benzo[d]imidazol-2-yl)phenyl]-[4,5′-bipyrimidin]-2′-amine] | 30 to 60% | > 60%
